Measurements reported in US11104648B2, “Pyrazole derivative” (Zhejiang Research Institute of Chemical Industry Co., Ltd., priority 2018, dated 2021).
Read-outs that look alike come from different tables or passages of the source.

Experiments:
Assay type in all cases: in vivo
[1] = system: Eggs of Tetranychus Cinnabarinus; experiment: Activity assay of eggs of Tetranychus cinnabarinus (spray method, ovicidal); conditions: Tetranychus cinnabarinus, read-out: ovicidal activity
Method in brief: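 Female mites laid eggs on broad bean leaves for 24 h, adults removed, eggs sprayed with compound in DMF (≤10%)/1‰ Tween 80. Held at 26±2° C, 70–80% humidity, 16 h light; unhatched eggs counted dead once blank control hatched. Three replicates.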

[2] = system: Tetranychus cinnabarinus Nymphs; experiment: Activity assay of Tetranychus cinnabarinus nymphs (spray on broad bean leaves)
Method in brief: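 Compound in DMF (≤10%) diluted in 1‰ Tween 80 water was sprayed onto broad bean leaves carrying nymphs hatched from eggs laid by female adults over 24 h. Kept at 26±2° C., 70%–80% humidity, 16 h light; mortality (no response to touch) assessed after 48 h, three replicates with blank control.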

[3] = system: adult Tetranychus cinnabarinus; experiment: Activity assay of adult Tetranychus cinnabarinus (whole-plant spray on bean seedlings); conditions: 48 h, read-out: adult mite-killing activity
Method in brief: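 Bean seedlings at two-true-leaf stage, infested with adult mites and base count taken, sprayed whole-plant with compound in DMF (≤10%) diluted in 1‰ Tween 80. Three replicates per treatment kept in standard observation room. Surviving mites counted at 48 h to give death rate.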

[4] = 48 h, read-out: nymph-killing activity
[5] = concentration 5 mg/L, spray, non-incubated eggs counted as dead
[6] = 48 h, concentration 2.5 mg/L, read-out: nymph-killing activity
[7] = concentration 2.5 mg/L, 48 h, read-out: nymph-killing activity

Row | Structure (SMILES) | pest or weed control at 5 µg/mL [1] | pest or weed control at 2.5 µg/mL [2, 4] | pest or weed control at 2.5 µg/mL [3] | pest or weed control at 5 µg/mL [1, 5] | pest or weed control at 2.5 µg/mL [2, 6] | pest or weed control at 2.5 µg/mL ([3]; concentration 2.5 mg/L) | pest or weed control at 2.5 µg/mL [2, 7]
1 | Cc1nn(C)c(/C(OC(C)OC(=O)CF)=C(\C#N)c2ccc(C(C)(C)C)cc2)c1Cl (stereo not drawn) [Compound 112] | ≥ 90% | ≥ 95% | ≥ 90% |  |  |  | 
2 | Cc1nn(C)c(/C(OC(C)OC(=O)C(F)(F)F)=C(\C#N)c2ccc(C(C)(C)C)cc2)c1Cl (stereo not drawn) [Compound 113] |  |  |  | ≥ 90% | ≥ 95% | ≥ 90% | 
3 | Cc1nn(C)c(/C(OC(C)OC(=O)c2ccccc2)=C(\C#N)c2ccc(C(C)(C)C)cc2)c1Cl (stereo not drawn) [Compound 114] |  |  |  | ≥ 90% | ≥ 95% | ≥ 90% | 
4 | Cc1nn(C)c(/C(OC(C)OC(=O)Cc2ccccc2)=C(\C#N)c2ccc(C(C)(C)C)cc2)c1Cl (stereo not drawn) [Compound 115] |  |  |  | ≥ 90% |  | ≥ 90% | ≥ 95%
5 | CCC(C)(C)C(=O)OC(C)O/C(=C(/C#N)c1ccc(C(C)(C)C)cc1)c1c(Cl)c(C)nn1C (stereo not drawn) [Compound 116] |  |  |  | ≥ 90% | ≥ 95% | ≥ 90% | 
6 | C=CC(=O)OC(C)O/C(=C(/C#N)c1ccc(C(C)(C)C)cc1)c1c(Cl)c(C)nn1C (stereo not drawn) [Compound 117] |  |  |  | ≥ 90% | ≥ 95% | ≥ 90% | 
7 | CC(=O)OCO/C(=C(/C#N)c1ccc(C(C)(C)C)cc1)c1c(C)c(C)nn1C [Compound 151] |  |  |  | ≥ 90% | ≥ 95% | ≥ 90% | 
8 | CCC(=O)OCO/C(=C(/C#N)c1ccc(C(C)(C)C)cc1)c1c(C)c(C)nn1C [Compound 152] |  |  |  | ≥ 90% | ≥ 95% | ≥ 90% | 
9 | CCCC(=O)OCO/C(=C(/C#N)c1ccc(C(C)(C)C)cc1)c1c(C)c(C)nn1C [Compound 153] |  |  |  | ≥ 90% | ≥ 95% | ≥ 90% | 
10 | Cc1nn(C)c(/C(OCOC(=O)C(C)C)=C(\C#N)c2ccc(C(C)(C)C)cc2)c1C [Compound 154] |  |  |  | ≥ 90% | ≥ 95% | ≥ 90% | 
11 | Cc1nn(C)c(/C(OCOC(=O)C(C)(C)C)=C(\C#N)c2ccc(C(C)(C)C)cc2)c1C [Compound 155] |  |  |  | ≥ 90% | ≥ 95% | ≥ 90% | 
12 | CCCCC(=O)OCO/C(=C(/C#N)c1ccc(C(C)(C)C)cc1)c1c(C)c(C)nn1C [Compound 156] |  |  |  | ≥ 90% | ≥ 95% | ≥ 90% | 
13 | Cc1nn(C)c(/C(OCOC(=O)CC(C)C)=C(\C#N)c2ccc(C(C)(C)C)cc2)c1C [Compound 157] |  |  |  | ≥ 90% | ≥ 95% | ≥ 90% | 
14 | COCC(=O)OCO/C(=C(/C#N)c1ccc(C(C)(C)C)cc1)c1c(C)c(C)nn1C [Compound 158] |  |  |  | ≥ 90% | ≥ 95% | ≥ 90% | 
15 | Cc1nn(C)c(/C(OCOC(=O)C2CC2)=C(\C#N)c2ccc(C(C)(C)C)cc2)c1C [Compound 159] |  |  |  | ≥ 90% | ≥ 95% | ≥ 90% | 
16 | CSCC(=O)OCO/C(=C(/C#N)c1ccc(C(C)(C)C)cc1)c1c(C)c(C)nn1C [Compound 160] |  |  |  | ≥ 90% | ≥ 95% | ≥ 90% | 
17 | Cc1nn(C)c(/C(OCOC(=O)C2CCCCC2)=C(\C#N)c2ccc(C(C)(C)C)cc2)c1C [Compound 161] |  |  |  | ≥ 90% | ≥ 95% | ≥ 90% | 
18 | Cc1nn(C)c(/C(OCOC(=O)CF)=C(\C#N)c2ccc(C(C)(C)C)cc2)c1C [Compound 162] | ≥ 90% | ≥ 95% | ≥ 90% |  |  |  | 
19 | Cc1nn(C)c(/C(OCOC(=O)C(F)(F)F)=C(\C#N)c2ccc(C(C)(C)C)cc2)c1C [Compound 163] |  |  |  | ≥ 90% | ≥ 95% | ≥ 90% | 
20 | Cc1nn(C)c(/C(OCOC(=O)c2ccccc2)=C(\C#N)c2ccc(C(C)(C)C)cc2)c1C [Compound 164] |  |  |  | ≥ 90% | ≥ 95% | ≥ 90% | 

Row | Structure (SMILES) | pest or weed control at 5 µg/mL [1] | pest or weed control at 2.5 µg/mL [2, 4] | pest or weed control at 2.5 µg/mL [3] | pest or weed control at 5 µg/mL [1, 5] | pest or weed control at 2.5 µg/mL [2, 6] | pest or weed control at 2.5 µg/mL ([3]; concentration 2.5 mg/L) | pest or weed control at 2.5 µg/mL [2, 7]
21 | Cc1nn(C)c(/C(OCOC(=O)Cc2ccccc2)=C(\C#N)c2ccc(C(C)(C)C)cc2)c1C [Compound 165] |  |  |  | ≥ 90% |  | ≥ 90% | ≥ 95%
22 | CCC(C)(C)C(=O)OCO/C(=C(/C#N)c1ccc(C(C)(C)C)cc1)c1c(C)c(C)nn1C [Compound 166] |  |  |  | ≥ 90% | ≥ 95% | ≥ 90% | 
23 | C=CC(=O)OCO/C(=C(/C#N)c1ccc(C(C)(C)C)cc1)c1c(C)c(C)nn1C [Compound 167] |  |  |  | ≥ 90% | ≥ 95% | ≥ 90% | 
24 | CC(=O)OC(C)O/C(=C(/C#N)c1ccc(C(C)(C)C)cc1)c1c(C)c(C)nn1C (stereo not drawn) [Compound 176] |  |  |  | ≥ 90% | ≥ 95% | ≥ 90% | 
25 | CCC(=O)OC(C)O/C(=C(/C#N)c1ccc(C(C)(C)C)cc1)c1c(C)c(C)nn1C (stereo not drawn) [Compound 177] |  |  |  | ≥ 90% | ≥ 95% | ≥ 90% | 
26 | CCCC(=O)OC(C)O/C(=C(/C#N)c1ccc(C(C)(C)C)cc1)c1c(C)c(C)nn1C (stereo not drawn) [Compound 178] |  |  |  | ≥ 90% | ≥ 95% | ≥ 90% | 
27 | Cc1nn(C)c(/C(OC(C)OC(=O)C(C)C)=C(\C#N)c2ccc(C(C)(C)C)cc2)c1C (stereo not drawn) [Compound 179] |  |  |  | ≥ 90% | ≥ 95% | ≥ 90% | 
28 | Cc1nn(C)c(/C(OC(C)OC(=O)C(C)(C)C)=C(\C#N)c2ccc(C(C)(C)C)cc2)c1C (stereo not drawn) [Compound 180] |  |  |  | ≥ 90% | ≥ 95% | ≥ 90% | 
29 | CCCCC(=O)OC(C)O/C(=C(/C#N)c1ccc(C(C)(C)C)cc1)c1c(C)c(C)nn1C (stereo not drawn) [Compound 181] |  |  |  | ≥ 90% | ≥ 95% | ≥ 90% | 
30 | Cc1nn(C)c(/C(OC(C)OC(=O)CC(C)C)=C(\C#N)c2ccc(C(C)(C)C)cc2)c1C (stereo not drawn) [Compound 182] |  |  |  | ≥ 90% | ≥ 95% | ≥ 90% | 
31 | COCC(=O)OC(C)O/C(=C(/C#N)c1ccc(C(C)(C)C)cc1)c1c(C)c(C)nn1C (stereo not drawn) [Compound 183] |  |  |  | ≥ 90% | ≥ 95% | ≥ 90% | 
32 | Cc1nn(C)c(/C(OC(C)OC(=O)C2CC2)=C(\C#N)c2ccc(C(C)(C)C)cc2)c1C (stereo not drawn) [Compound 184] |  |  |  | ≥ 90% | ≥ 95% | ≥ 90% | 
33 | CSCC(=O)OC(C)O/C(=C(/C#N)c1ccc(C(C)(C)C)cc1)c1c(C)c(C)nn1C (stereo not drawn) [Compound 185] |  |  |  | ≥ 90% | ≥ 95% | ≥ 90% | 
34 | Cc1nn(C)c(/C(OC(C)OC(=O)C2CCCCC2)=C(\C#N)c2ccc(C(C)(C)C)cc2)c1C (stereo not drawn) [Compound 186] |  |  |  | ≥ 90% | ≥ 95% | ≥ 90% | 
35 | Cc1nn(C)c(/C(OC(C)OC(=O)CF)=C(\C#N)c2ccc(C(C)(C)C)cc2)c1C (stereo not drawn) [Compound 187] | ≥ 90% | ≥ 95% | ≥ 90% |  |  |  | 
36 | Cc1nn(C)c(/C(OC(C)OC(=O)C(F)(F)F)=C(\C#N)c2ccc(C(C)(C)C)cc2)c1C (stereo not drawn) [Compound 188] |  |  |  | ≥ 90% | ≥ 95% | ≥ 90% | 
37 | Cc1nn(C)c(/C(OC(C)OC(=O)c2ccccc2)=C(\C#N)c2ccc(C(C)(C)C)cc2)c1C (stereo not drawn) [Compound 189] |  |  |  | ≥ 90% | ≥ 95% | ≥ 90% | 
38 | Cc1nn(C)c(/C(OC(C)OC(=O)Cc2ccccc2)=C(\C#N)c2ccc(C(C)(C)C)cc2)c1C (stereo not drawn) [Compound 190] |  |  |  | ≥ 90% |  | ≥ 90% | ≥ 95%
39 | CCC(C)(C)C(=O)OC(C)O/C(=C(/C#N)c1ccc(C(C)(C)C)cc1)c1c(C)c(C)nn1C (stereo not drawn) [Compound 191] |  |  |  | ≥ 90% | ≥ 95% | ≥ 90% | 
40 | C=CC(=O)OC(C)O/C(=C(/C#N)c1ccc(C(C)(C)C)cc1)c1c(C)c(C)nn1C (stereo not drawn) [Compound 192] |  |  |  | ≥ 90% | ≥ 95% | ≥ 90% | 
